The values below come from PMC9916658, “Design and Synthesis of New Quinazolin-4-one Derivatives with Negative mGlu7 Receptor Modulation Activity and Antipsychotic-Like Properties” (International Journal of Molecular Sciences, 2023).

SMILES strings stand for the structures. “Also recorded” adds a separate entry of the source.

The target in assay [1] is T1, recombinant human mGlu7 receptor (Homo sapiens, UniProt Q14831).
T1 construct: expressed in transfected cells; host or cells: T-REx 293 (tetracycline-inducible)
The assay can be described thus: NAM mGlu7 activity, forskolin-induced cAMP (HTRF) in T-REx 293 cell line. To be noted: forskolin-stimulated cAMP response, 5 µM LSP4-2022 (EC80), T-REx 293 human mGlu7; for Inhibition (%): 10 μM compound. It counts as cell-based. Here is the method: The cell lines with the tetracycline-inducible expression of human metabotropic receptors 4, 7, and 8 were described in detail by Chruścicka et al. (mGlu4 receptor NM_000841, mGlu7 receptor NM_000844.2, and mGlu8 receptor NM_000845). Cells were grown under standard cell culture conditions (37 °C, 5% CO2) in DMEM supplemented with 10% tetracycline-free FBS. The expression was induced through the addition of tetracycline to the culture medium at 0.75 μg/mL.
The determination of the intracellular cAMP through homogeneous time-resolved fluorescence (HTRF) was described in detail previously. Briefly, 48 h before the experiments, the expression of the receptor was induced through the addition of tetracycline to the culture medium; the next day, FBS and L-Glu were removed from the medium. Just before the cAMP measurement, the cells were detached and centrifuged. Then, the cell suspension in Hanks-HEPES (130 mM NaCl, 5.4 mM KCl, 1.8 mM CaCl2, 0.8 mM MgSO4, 0.9 mM NaH2PO4, 20 mM HEPES, and 3.25 mM glucose; pH 7.4) was incubated in the presence of 10 µM forskolin (mGlu7 receptor, 3 µM forskolin), the agonist LSP4-2022 or L-Glu (for mGlu4 and mGlu8), and a compound for 5 min. The intracellular concentration of cyclic AMP was measured by means of a cAMP Gi HTRF kit from Cisbio, according to the manufacturer’s instructions. After 1 h of incubation at room temperature, the fluorescence at 620 nm and 665 nm was read (Tecan Infinite M1000). The results were calculated as the 665 nm/620 nm ratio multiplied by 10^4. Each sample was prepared in triplicate. Data were analyzed using GraphPad Prism version 5.04 for Windows (GraphPad Software, San Diego, USA).
The activity of the compounds was examined in the T-REx 293-cell-line-expressing recombinant human mGlu7 receptor by detecting the level of cyclic AMP in the presence of 5 µM forskolin [7, 41]. […] The substances were incubated with 5 µM LSP4-2022 (EC80).
Firstly, all compounds were screened at 10 μM using three cell lines expressing the mGlu4/7/8 receptor to evaluate selectivity. For the mGlu4 and mGlu8 receptors, glutamic acid was used as an agonist and had good potency. […] VU0155041 and AZ12216052 were used as reference compounds for the mGlu4 and mGlu8 receptors, respectively. The parameter described as “% of inhibition” was introduced to compare the bioactivity of the new compounds to the reference NAM at a 10 μM concentration in the presence of 5 μM LSP4-2022 (0%) and 3 μM forskolin (100%). […] For compounds that passed the screening procedure, the dose–response curve in the presence of LSP4-2022 in 5 μM was evaluated compared to reference NAM ADX71743. Only compounds ALX-063, ALX-065, and ALX-171 (Figure S3, Supplementary Materials) met our conditions regarding bioactivity. All of them were further investigated to determine the EC50 and receptor selectivity. […]
2.1. NAM mGlu7 receptor activity on T-Rex 293 cell line
The activity of compounds was examined on T-REx 293 cell line expressing recombinant human mGlu7 receptor by detecting the level of cyclic AMP in the presence of 5 µM forskolin [14,15]. The cell line was […]
incubated with 5 µM of LSP4-2022 (EC80).
In general terms: In TR-FRET formats the signal depends on donor and acceptor labels being close together.

For assay [2], the target named is T1, recombinant human mGlu7 receptor. The description is as above. The format is cell-based.
Assay [3] relates to animal models of schizophrenia. To be noted: mGlu7 PAM; cited from earlier work.

T1 sequence (Q14831 35-915): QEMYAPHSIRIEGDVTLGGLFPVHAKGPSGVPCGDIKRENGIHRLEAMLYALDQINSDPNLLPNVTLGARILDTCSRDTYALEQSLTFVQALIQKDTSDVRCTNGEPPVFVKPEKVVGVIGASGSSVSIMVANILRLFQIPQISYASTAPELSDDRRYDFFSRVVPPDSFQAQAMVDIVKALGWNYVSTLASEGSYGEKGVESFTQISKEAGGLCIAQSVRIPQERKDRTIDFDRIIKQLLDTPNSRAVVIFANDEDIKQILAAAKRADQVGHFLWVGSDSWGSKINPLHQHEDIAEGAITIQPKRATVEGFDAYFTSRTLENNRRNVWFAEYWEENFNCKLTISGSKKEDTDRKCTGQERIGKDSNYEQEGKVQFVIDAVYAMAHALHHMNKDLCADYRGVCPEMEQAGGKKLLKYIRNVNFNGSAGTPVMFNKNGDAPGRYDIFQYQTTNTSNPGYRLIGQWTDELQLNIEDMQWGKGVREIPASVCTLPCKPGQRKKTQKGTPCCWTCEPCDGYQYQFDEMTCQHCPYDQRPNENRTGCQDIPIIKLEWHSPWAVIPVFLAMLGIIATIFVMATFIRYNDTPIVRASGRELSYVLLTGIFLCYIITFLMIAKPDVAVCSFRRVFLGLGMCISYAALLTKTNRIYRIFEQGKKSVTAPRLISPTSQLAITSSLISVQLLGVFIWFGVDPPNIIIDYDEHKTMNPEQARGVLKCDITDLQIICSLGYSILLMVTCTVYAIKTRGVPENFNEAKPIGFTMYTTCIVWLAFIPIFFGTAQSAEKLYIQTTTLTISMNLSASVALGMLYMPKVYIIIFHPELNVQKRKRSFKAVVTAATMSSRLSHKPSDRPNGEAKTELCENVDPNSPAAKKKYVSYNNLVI

With `COc1ccccc1-c1ccc2nc(-c3ccccc3Cl)n(C)c(=O)c2c1` [A9-4], in assay [1], the “Inhibition (%)” value is on record as “Inactive”.

On to `COc1cccc(-c2ccc3nc(-c4ccccc4Cl)n(C)c(=O)c3c2)c1` [A9-5], for which the “Inhibition (%)” value in assay [1] was “Inactive”.

For the compound `COc1ccc(-c2ccc3nc(-c4ccccc4Cl)n(C)c(=O)c3c2)cc1` [A9-6], the “Inhibition (%)” value in assay [1] is given as “not observed; also recorded: Inactive”.

In the case of `COc1ccc(-c2ccc3nc(-c4ccccc4Cl)n(C)c(=O)c3c2)c(OC)c1` [A9-8], the “Inhibition (%)” value in assay [1] is reported as “Inactive”.

In the case of `COc1ccc(-c2ccc3nc(-c4ccccc4Cl)n(C)c(=O)c3c2)cc1OC` [A9-9], the “Inhibition (%)” value in assay [1] is given as “Inactive”.

On to `COc1ccc(OC)c(-c2ccc3nc(-c4ccccc4Cl)n(C)c(=O)c3c2)c1` [A9-10], for which, in assay [1], the “Inhibition (%)” value is “Inactive”.

`COc1cc(OC)cc(-c2ccc3nc(-c4ccccc4Cl)n(C)c(=O)c3c2)c1` [A9-11]: the “Inhibition (%)” value in assay [1] is listed as “Inactive”.

For the compound `COc1cccc(OC)c1-c1ccc2nc(-c3ccccc3Cl)n(C)c(=O)c2c1` [A9-12], the “Inhibition (%)” value in assay [1] is listed as “Inactive”.

In general, IC50 refers to the concentration that inhibits the measured activity by half. As usually defined, the inhibition is the relative decrease from the control value, in per cent. Take `Cn1c(-c2ccccc2)nc2ccc(-c3ccccc3)cc2c1=O` [ALX-063, 3-methyl-2,6-diphenylquinazolin-4(3H)-one]: in assay [2] (T-REx 293 cells expressing human mGlu7, 5 µM LSP4-2022 (EC80), 5 µM forskolin), the IC50 turned out to be 6.5 µM. The inhibition at 10 µM in assay [1] (T-REx-293, 10 μM compound) is 42.5 ± 36.5%.

Consider `c1ccc(C(NCCNC(c2ccccc2)c2ccccc2)c2ccccc2)cc1` [AMN082], for which the “activity in animal models” value in assay [3] was “propsychotic activity”.

For `N[C@@H](CCC(=O)O)C(=O)O` [L-Glu], the “agonist potency at mGlu7 receptor” value in assay [2] (agonist compared with LSP4-2022) is recorded as ~ 1 mM.
